“And” between values parts separate entries of the source, which are not always exact repeats. Equal entries are not always repeated. “Also recorded” adds a separate entry of the source. Where two headings read alike, the source gives them in different places.
How the values were obtained:
C. albicans = test: Disseminated candidiasis: mean survival and kidney infection (Study 41B); type: in vivo, mice; conditions: for Kidney Infection: greater than 8 logs of C. albicans, day 5
Protocol: Study 41B: Using a standardized inoculum (i.e., 10^8 cells/mL), the LD95 value (=14.9×10^6 cells/animal) was determined by injecting different numbers of C. albicans cells iv into mice and recording deaths at 20 days. L-Glu-L-Trp was administered ip at doses of 1, 10, 100 and 300 μg/kg in either a prophylactic or therapeutic drug regimen (abbreviated PDR or TDR, respectively). Prophylaxis consisted of 3 ip injections on 3 consecutive days, with the last injection being 3 hours before injecting the C. albicans cells iv. Therapy consisted of 10 consecutive daily ip injections starting 24 hours after the iv injection of the C. albicans cells. Mean survival was determined at 10 days, and as an independent monitor for infection, kidneys were removed from nine parallel groups (12 animals each) of infected animals at 5 days and after microbiological isolation the numbers of C. albicans cultures counted.

[1] = Frequently ill children with respiratory infection, asthma and allergy (Protocol C); type: in vivo, human
[2] = Dental caries: toothpaste containing L-Glu-L-Trp; type: in vivo, human
Protocol: The use of dental toothpaste containing L-Glu-L-Trp will have the secondary effect of reducing incidence and severity of gingival disease. Patients with odontogenic infections and periapical granulomas can be treated with 100 μg of L-Glu-L-Trp instilled into the foramen at the base of the tooth, or alternatively, L-Glu-L-Trp can be compounded in a filling paste which is packed into the base of the tooth.

Mycobacterium leprae = type: in vivo, human
hepatitis B = test: Children with chronic persistent hepatitis B; type: in vivo, human; parameters: T-Lymphocytes (E-RFC): unit not given here
Protocol: In accord with a USSR Ministry of Health decision 125 children suffering with chronic persistent hepatitis B were entered into this trial over a two month period. Group 1 consisted of 35 children who received decaris immunomodulatory therapy; Group 2, 38 children who received thymalin treatments; Group 3, […] who received L-Glu-L-Trp; and, Group 4, 32 children who received only conventional symptom specific therapy.
L-Glu-L-Trp was administered at a dose of 2 μg/kg of body mass, im, daily for […], and a repeat (identical) course of treatment was administered 10 days after termination of the first course.

cAMP and cGMP = test: Splenic lymphocyte cAMP and cGMP, normal, sensitized and anaphylactic animals; type: in vivo, guinea pigs; conditions: for cAMP / cAMP/cGMP / cGMP: splenic lymphocytes, 10 μg/kg
Protocol: Normal guinea pigs (10/group) were treated with 10 μg/kg L-Glu-L-Trp daily on each of five consecutive days and then spleens were removed, lymphocytes isolated, and cyclic AMP and GMP levels determined. To evaluate the effects of L-Glu-L-Trp on immune cells in the face of an ongoing anaphylactic response, splenic lymphocytes were isolated from guinea pigs sensitized for anaphylaxis, or following induction of anaphylactic shock.

[3] = system: antibiotic-resistant Staphylococci; test: Chronic skin diseases caused by antibiotic-resistant Staphylococci (Protocol A2); type: in vivo, human
[4] = Non-Responders, After L-Glu-L-Trp (n = 7)
[5] = Responders, L-Glu-L-Trp Therapy (n = 12)
[6] = sensitized + anaphylaxis (Group 5)
[7] = sensitized guinea pigs (Group 3)

L-Glu-L-Trp
Survival % 6d (C. albicans; PDR, 1 μg/kg ip): 50% | Survival % 8d (C. albicans; PDR, 1 μg/kg ip): 20% | Survival Mean (C. albicans; PDR, 1 μg/kg ip): 6.2 ± 2.0 days | Kidney Infection (C. albicans; PDR, 1 μg/kg ip): 58% | Survival % 6d (C. albicans; PDR, 10 μg/kg ip): 60% | Survival % 8d (C. albicans; PDR, 10 μg/kg ip): 20% | Survival Mean (C. albicans; PDR, 10 μg/kg ip): 6.4 ± 2.2 days | Kidney Infection (C. albicans; PDR, 10 μg/kg ip): 58% | Survival % 6d (C. albicans; PDR, 100 μg/kg ip): 80% | Survival % 8d (C. albicans; PDR, 100 μg/kg ip): 40% | Survival Mean (C. albicans; PDR, 100 μg/kg ip): 7.9 ± 1.9 days | Kidney Infection (C. albicans; PDR, 100 μg/kg ip): 75% | Survival % 6d (C. albicans; PDR, 300 μg/kg ip): 80% | Survival % 8d (C. albicans; PDR, 300 μg/kg ip): 50% | Survival Mean (C. albicans; PDR, 300 μg/kg ip): 7.8 ± 2.1 days | Kidney Infection (C. albicans; PDR, 300 μg/kg ip): 58% | Survival % 6d (C. albicans; TDR, 1 μg/kg ip): 60% | Survival % 8d (C. albicans; TDR, 1 μg/kg ip): 50% | Survival Mean (C. albicans; TDR, 1 μg/kg ip): 7.3 ± 2.7 days | Kidney Infection (C. albicans; TDR, 1 μg/kg ip): 67% | Survival % 6d (C. albicans; TDR, 10 μg/kg ip): 50% | Survival % 8d (C. albicans; TDR, 10 μg/kg ip): 30% | Survival Mean (C. albicans; TDR, 10 μg/kg ip): 6.2 ± 2.2 days | Kidney Infection (C. albicans; TDR, 10 μg/kg ip): 50% | Survival % 6d (C. albicans; TDR, 100 μg/kg ip): 80% | Survival % 8d (C. albicans; TDR, 100 μg/kg ip): 50% | Survival Mean (C. albicans; TDR, 100 μg/kg ip): 7.8 ± 1.9 days | Kidney Infection (C. albicans; TDR, 100 μg/kg ip): 75% | Survival % 6d (C. albicans; TDR, 300 μg/kg ip): 80% | Survival % 8d (C. albicans; TDR, 300 μg/kg ip): 40% | Survival Mean (C. albicans; TDR, 300 μg/kg ip): 7.8 ± 2.1 days | Kidney Infection (C. albicans; TDR, 300 μg/kg ip): 67% | Survival (C. albicans; prophylactic and therapeutic treatments): significantly increased the number of animals surviving at days 6 and 8 | Children with a decrease in the number of respiratory infections ([1]; 6-12 months): 92.9% | T-lymphocytes in peripheral blood ([1]; after first course): statistically significant increase was noted in both the absolute number and percentage of T-lymphocytes | Reduction in attacks of bronchial asthma ([1]; asthma patients): 4.2 fold | Average reduction in the number of infections ([1]; in vivo): 3.6 fold | Decrease of average length of illness ([1]; in vivo): 4 to 5 days | Patients in whom food allergies disappeared ([1]; in vivo): 67.8% | Clinical outcome [2]: reduction of caries | Mean % responsive PBL (blast cells), Con-A (Mycobacterium leprae; 5-7 days): 22.5 ± 4.0% | Mean % responsive PBL (blast cells), PHA (Mycobacterium leprae; 5-7 days): 28.7 ± 3.8% | Additional decrease in area of ulceration, primary NTU (Mycobacterium leprae; in vivo): 23.2% and 22% | Blast cells responsive to synthetic leprosy antigen (Mycobacterium leprae; in vivo): 2.86±0.9% | Clinical outcome (Mycobacterium leprae; in vivo): resolution of dermal leprotic lesions | Decrease in area of ulceration, primary NTU (Mycobacterium leprae; in vivo): 40% | Decrease in area of ulceration, recurrent ulcers (Mycobacterium leprae; in vivo): 22.6% | EI change versus Before (↓) (Mycobacterium leprae; in vivo): (↓33%) | Healing time, primary NTU (Mycobacterium leprae; in vivo): 3-6 weeks | Healing time, secondary recurrent NTU (Mycobacterium leprae; in vivo): 4-6 weeks | Increase of blast responsiveness of patient lymphocytes to Con-A (Mycobacterium leprae; in vivo): 1.6 fold | Increase of blast responsiveness of patient lymphocytes to PHA (Mycobacterium leprae; in vivo): 1.8 fold | Increase of lymphocytes responsive to synthetic leprosy antigen (Mycobacterium leprae; in vivo): about 1.6 fold | Lepromin skin test conversion (Mycobacterium leprae; in vivo): four subjects with negative skin tests for lepromin at the beginning of therapy turned positive | Mean % responsive PBL (blast cells), Con-A (Mycobacterium leprae; in vivo): 36.9 ± 1.28% | Mean % responsive PBL (blast cells), PHA (Mycobacterium leprae; in vivo): 22.3 ± 1.43% | OKT 4 (%) (Mycobacterium leprae; in vivo): 40.67 ± 1.44% and 43.25 ± 1.91% | OKT 4/OKT 8 (Mycobacterium leprae; in vivo): 1.61 ± 0.08 and 1.68 ± 0.32 | OKT 8 (%) (Mycobacterium leprae; in vivo): 25.56 ± 1.15% and 27.25 ± 3.42% | OKT 11 (%) (Mycobacterium leprae; in vivo): 72.22 ± 1.52% and 76.25 ± 0.87% | Rate of healing, primary NTU (Mycobacterium leprae; in vivo): 6.34 mm^2/day | Rate of healing, recurrent NTU (Mycobacterium leprae; in vivo): 5.91 mm^2/day | Romanovsky Staining (Mycobacterium leprae; in vivo): regenerative: lst or 2nd phase; also recorded: regenerative: 2nd or 3rd. phase,; also recorded: regenerative: 3rd. phase/healing;; also recorded: degenerative cells & | Percent of Subjects Disease Free at 6 Months After Treatment (hepatitis B; Group 1, Pre-Treatment ALCT Activity None): 100% | Percent of Subjects Disease Free at 6 Months After Treatment (hepatitis B; Group 2, Pre-Treatment ALCT Activity Moderate): 80% | Percent of Subjects Disease Free at 6 Months After Treatment (hepatitis B; Group 3, Pre-Treatment ALCT Activity High): 0% | ALCT Cytotoxic Index (hepatitis B; [4]): 44.55 ± 6.8 | ALCT: % of subjects (hepatitis B; [4]): 57.14 ± 18.7% | Ratio OKT4^+/OKT8^+ (hepatitis B; [4]): 0.82 ± 0.07 | T-Lymphocytes (E-RFC) (hepatitis B; [4]): 1382 ± 76 ×10^9 | T-Lymphocytes (E-RFC) % Normal Value (hepatitis B; [4]): (85%) | T-Lymphocytes (E-RFC) % of PBL (hepatitis B; [4]): 56.7 ± 3.24 % of PBL | ALCT Cytotoxic Index (hepatitis B; [5]): 50.4 ± 5.5 | ALCT: % of subjects (hepatitis B; [5]): 16.7 ± 13.2% | Ratio OKT4^+/OKT8^+ (hepatitis B; [5]): 1.08 ± 0.07 | T-Lymphocytes (E-RFC) (hepatitis B; [5]): 1227 ± 65 ×10^9 | T-Lymphocytes (E-RFC) % Normal Value (hepatitis B; [5]): (76%) | T-Lymphocytes (E-RFC) % of PBL (hepatitis B; [5]): 47.33 ± 2.2 % of PBL | Stable remission over 6 months (hepatitis B; highest ALCT levels): 0% | Patients with increased E-RFC T-lymphocytes and ADCC decreased to normal (responders) (hepatitis B; in vivo): about 63% | Stable remission over 6 months (hepatitis B; moderate ALCT activity): 80% | Stable remission over 6 months (hepatitis B; patients lacking demonstrable ALCT): One hundred percent | cAMP and cGMP levels (cAMP and cGMP; sensitized and anaphylactic animals): significantly elevated the levels of cAMP and cGMP | cAMP (cAMP and cGMP; [6]): 210 ± 30 pmole/10^7 cells | cAMP/cGMP (cAMP and cGMP; [6]): 26 ± 3 | cGMP (cAMP and cGMP; [6]): 7.9 ± 0.5 pmole/10^7 cells | cAMP (cAMP and cGMP; [7]): 250 ± 30 pmole/10^7 cells | cAMP/cGMP (cAMP and cGMP; [7]): 22 ± 2 | cGMP (cAMP and cGMP; [7]): 11.2 ± 0.9 pmole/10^7 cells | Clinical outcome ([3]; L-Glu-L-Trp then individualized antibiotic): complete recovery in all patients | Increase in antibiotic-sensitivity of the patients' Staphylococci ([3]; patients with secondary T-immunodeficiency): more than 100 fold
